Strand notation (5' to 3'): a small letter for the sugar, then the base; units joined by * are phosphorothioate-linked, units joined directly phosphodiester-linked; [ ] holds rarer units or linkages, { } end groups; capitals alone tell only the bases. k = constrained ethyl (cEt); [5mC] = 5-methylcytosine; d = 2'-deoxy (DNA)

The record followed here is patent US11214803B2, “Modulators of YAP1 expression” (Ionis Pharmaceuticals, Inc., priority 2019, dated 2022).

The subject of the data set is Yap1 mRNA. Put plainly: Antisense inhibition of human Yap1 in A-431 cells by cEt gapmers, single dose (Example 2, RTS4814). The format is cell-based. Summed up: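 Free uptake, 2,000 nM, ~48 h, A-431 at 5,000 cells/well. Readout: RT-qPCR (RTS4814), RIBOGREEN-normalized, % UTC. 16-mer 3-10-3 cEt gapmers, full PS backbone, all C as 5-methylcytosine.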
Setting [1] is: Table 33, Yap1 mRNA, percent of untreated control, 3-10-3 cEt gapmers targeting SEQ ID NO.: 1, and 2.
Setting [2] is: Table 20, Yap1 mRNA, percent of untreated control, 3-10-3 cEt gapmers targeting SEQ ID NO.: 1 and 2.
The mark [3] stands for this setting: A-431 cells, 5,000 cells per well, free uptake, 2,000 nM modified oligonucleotide, approx. 48 hours, RTS4814, normalized to RIBOGREEN, Table 4, asterisk (*) = targets amplicon region of primer probe set.
[4] abbreviates: Table 19, A-431 cells, 5,000 cells per well, free uptake, 2,000 nM modified oligonucleotide, approx. 48 hours, RTS4814, normalized to RIBOGREEN, Yap1 mRNA as percent of untreated control.
Where [5] appears, read: Table 21, Yap1 mRNA, percent of untreated control, 3-10-3 cEt gapmers targeting SEQ ID NO.: 1 and 2.
Setting [6] is: Table 5, A-431 cells, 5,000 cells per well, free uptake, 2,000 nM modified oligonucleotide, approx. 48 hours, RTS4814, normalized to RIBOGREEN, Yap1 mRNA relative to untreated control cells.
Where [7] appears, read: Table 23, Yap1 mRNA as percent of untreated control, 3-10-3 cEt gapmers, single dose.
The mark [8] stands for this setting: Table 32, Yap1 mRNA, percent of untreated control, 3-10-3 cEt gapmers targeting SEQ ID NO.: 1, and 2.
[9] abbreviates: Table 22, Yap1 mRNA as percent of untreated control, 3-10-3 cEt gapmers, single dose.
The mark [10] stands for this setting: Table 18, A-431 cells, 5,000 cells per well, free uptake, 2,000 nM modified oligonucleotide, approx. 48 hours, RTS4814, normalized to RIBOGREEN, Yap1 mRNA as percent of untreated control.
The mark [11] stands for this setting: Table 6, A-431 cells, 5,000 cells per well, free uptake, 2,000 nM modified oligonucleotide, approx. 48 hours, RTS4814, normalized to RIBOGREEN, Yap1 mRNA relative to untreated control cells.
The mark [12] stands for this setting: Table 24, Yap1 mRNA as percent of untreated control, 3-10-3 cEt gapmers targeting SEQ ID NO.: 1, and 2.

Consider “1076051 (k[5mC]*kT*kT*dA*dA*d[5mC]*dT*dA*dT*dT*d[5mC]*dA*dG*k[5mC]*k[5mC]*k[5mC]; antisense) [compound 1076051]”, for which, under setting [1], the “YAP1 (% UTC)” value is given as 21 % UTC.
On to “1075142 (antisense kG*kA*kT*dA*dT*dA*d[5mC]*dG*dA*dG*dA*dA*dG*kT*kT*kG) [Compound 1075142]”, for which the “YAP1 (% UTC)” value under setting [2] is recorded as 16 % UTC.
In the case of “1074854 (antisense kA*k[5mC]*kA*dA*dT*dT*dG*dT*dT*dA*dT*dG*dA*kT*kA*kG) [Compound 1074854]”, the “YAP1 (% UTC)” value under setting [2] is reported as 23 % UTC.
The same measure, in the same setting: the value for “1075174 (antisense k[5mC]*k[5mC]*kT*dG*dA*dA*dA*dA*dG*dA*d[5mC]*dA*dG*kT*k[5mC]*k[5mC]) [Compound 1075174]” was 74 % UTC.
On to “716529 (antisense k[5mC]*kA*kA*dA*d[5mC]*dT*d[5mC]*dA*dA*dA*dA*dA*dG*kG*kG*kA) [Compound 716529]”, for which, under setting [3], the “YAP1 (% UTC)” value amounted to 61 % UTC.
Regarding “1074259 (antisense kT*k[5mC]*kA*dT*dA*dT*dT*d[5mC]*dT*dG*d[5mC]*dT*dG*k[5mC]*kA*k[5mC]) [compound 1074259]”, the “YAP1 (% UTC)” value under setting [1] was 38 % UTC.
Consider “1075877 (k[5mC]*kT*kG*dG*dA*dA*dA*dA*dG*dT*dA*d[5mC]*dA*kT*kT*k[5mC]; antisense) [Compound 1075877]”, for which the “YAP1 (% UTC)” value under setting [4] was found to be 28 % UTC.
Consider “1074535 (antisense kG*kT*kA*dA*dT*dA*dG*d[5mC]*dT*d[5mC]*dT*dT*dT*k[5mC]*kT*kA) [Compound 1074535]”, for which, under setting [5], the “YAP1 (% UTC)” value came to 5 % UTC.
As for “1074955 (antisense k[5mC]*k[5mC]*k[5mC]*dG*dG*dG*dT*dT*dT*dT*dT*dG*dT*k[5mC]*kA*kT) [Compound 1074955]”, where the note is “Table 25, Yap1 mRNA as percent of untreated control, 3-10-3 cEt gapmers targeting SEQ ID NO.: 1, and 2”, the “YAP1 (% UTC)” value is 93 % UTC.
For the substance “716350 (k[5mC]*kT*k[5mC]*dG*dG*dA*d[5mC]*d[5mC]*dT*dG*d[5mC]*dG*dG*k[5mC]*kG*k[5mC]; antisense) [Compound 716350]”, the “YAP1 (% UTC)” value under setting [6] is recorded as 99 % UTC.
With “1075431 (antisense kT*kA*kA*d[5mC]*dT*dA*dA*dA*d[5mC]*dT*dG*dA*dT*kT*k[5mC]*k[5mC]) [Compound 1075431]”, the “YAP1 (% UTC)” value under setting [5] was 74 % UTC.
In the case of “1074483 (k[5mC]*kA*k[5mC]*dT*dA*dA*dT*dA*dT*dG*dG*dT*d[5mC]*kA*kT*kT; antisense) [compound 1074483]”, the “YAP1 (% UTC)” value under setting [1] came out at 15 % UTC.
Turning to “1074313 (antisense kT*kG*kA*dT*dA*dT*dT*d[5mC]*d[5mC]*dG*d[5mC]*dA*dT*kT*kG*k[5mC]) [Compound 1074313]”, the “YAP1 (% UTC)” value under setting [7] was 5 % UTC.
For “716371 (kT*kG*kG*dA*dG*dT*d[5mC]*dA*dG*dG*dG*d[5mC]*dT*k[5mC]*k[5mC]*kT; antisense) [Compound 716371]”, the “YAP1 (% UTC)” value under setting [6] is on record as 115 % UTC.
In the case of “1075237 (antisense kG*k[5mC]*kT*dG*dA*dA*dA*dA*dT*dG*d[5mC]*dT*dA*kA*k[5mC]*kT) [Compound 1075237]”, under setting [4], the “YAP1 (% UTC)” value is given as 105 % UTC.
The same measure, in the same setting: with “1075653 (k[5mC]*kA*kT*dA*dA*dA*d[5mC]*dT*d[5mC]*dT*dG*d[5mC]*dT*kG*kT*k[5mC]; antisense) [Compound 1075653]” the figure was 58 % UTC.
With “1074278 (antisense k[5mC]*kT*kT*dG*dG*dG*dT*d[5mC]*dT*dA*dG*d[5mC]*d[5mC]*kA*kA*kG) [Compound 1074278]”, the “YAP1 (% UTC)” value under setting [2] amounted to 31 % UTC.
“1075314 (antisense kA*kA*kT*dA*dA*dA*dG*dT*d[5mC]*dT*dA*dA*dT*k[5mC]*k[5mC]*kA) [compound 1075314]”: the “YAP1 (% UTC)” value under setting [8] amounted to 54 % UTC.
On to “1075058 (antisense kA*kT*kT*dA*d[5mC]*dA*dA*dA*dG*dT*dA*dG*d[5mC]*kA*kA*k[5mC]) [compound 1075058]”, for which the “YAP1 (% UTC)” value under setting [8] amounted to 66 % UTC.
Turning to “1074504 (kT*k[5mC]*kG*dA*dG*dA*dT*dT*dT*dA*dA*dA*dT*kA*kA*kG; antisense) [Compound 1074504]”, the “YAP1 (% UTC)” value under setting [9] was 76 % UTC.
In the case of “1076358 (kG*kT*kT*dT*dA*dA*d[5mC]*dA*dA*dA*d[5mC]*dT*dT*kG*kT*kA; antisense) [Compound 1076358]”, under setting [2], the “YAP1 (% UTC)” value was 43 % UTC.
Turning to “1075940 (kA*k[5mC]*kT*d[5mC]*dA*dA*d[5mC]*dA*dA*d[5mC]*d[5mC]*d[5mC]*d[5mC]*kA*kA*kG; antisense) [Compound 1075940]”, the “YAP1 (% UTC)” value under setting [10] came out at 54 % UTC.
On to “1074291 (antisense k[5mC]*kA*k[5mC]*dT*d[5mC]*dT*dG*dA*d[5mC]*dT*dG*dA*dT*kT*k[5mC]*kT) [compound 1074291]”, for which, under setting [1], the “YAP1 (% UTC)” value was 11 % UTC.
Regarding “716525 (antisense k[5mC]*kA*k[5mC]*dA*dG*dT*dA*d[5mC]*dT*dG*d[5mC]*dT*dA*k[5mC]*kA*kA) [Compound 716525]”, under setting [11], the “YAP1 (% UTC)” value worked out at 64 % UTC.
As to “1075460 (antisense kA*kA*kT*dA*dA*d[5mC]*d[5mC]*dA*dA*dG*dG*dA*dT*kA*kG*kT) [Compound 1075460]”, the “YAP1 (% UTC)” value under setting [10] was 30 % UTC.
Take “1075216 (kT*kA*kT*dT*dT*dT*dA*d[5mC]*dA*d[5mC]*dG*dA*dA*k[5mC]*kT*kA; antisense) [compound 1075216]”: for the setting “Yap1 mRNA as percent of untreated control, A-431 cells, 3-10-3 cEt gapmers targeting SEQ ID NO.: 1, and 2, Table 30”, the “YAP1 (% UTC)” value is listed as 55 % UTC.
Take “716389 (kA*kG*k[5mC]*d[5mC]*dT*dT*dG*dG*dG*dT*d[5mC]*dT*dA*kG*k[5mC]*k[5mC]; antisense) [Compound 716389]”: the “YAP1 (% UTC)” value under setting [6] stood at 93 % UTC.
As to “1074570 (antisense kA*kT*kG*dA*dA*d[5mC]*d[5mC]*dT*dA*d[5mC]*dT*d[5mC]*dA*k[5mC]*kT*kG) [Compound 1074570]”, the “YAP1 (% UTC)” value under setting [12] is 12 % UTC.
Turning to “716400 (kT*kA*kA*d[5mC]*dT*d[5mC]*d[5mC]*dT*dG*dA*d[5mC]*dA*dT*kT*kT*kT; antisense) [Compound 716400]”, the “YAP1 (% UTC)” value under setting [3] worked out at 106 % UTC.
Consider “1075250 (kA*kA*kT*dT*dA*d[5mC]*dG*dA*dT*dT*dA*dG*dA*kT*k[5mC]*kA; antisense) [compound 1075250]”, for which the “YAP1 (% UTC)” value under setting [8] is 55 % UTC.
“1076328 (kA*k[5mC]*kT*dG*dA*dA*d[5mC]*d[5mC]*dG*d[5mC]*dT*dG*d[5mC]*k[5mC]*kT*k[5mC]; antisense) [Compound 1076328]”: under setting [9], the “YAP1 (% UTC)” value is on record as 33 % UTC.
As for “1075401 (antisense k[5mC]*kG*kA*dT*dT*dA*dA*dA*dA*d[5mC]*dA*d[5mC]*dT*kG*kG*kT) [Compound 1075401]”, the “YAP1 (% UTC)” value under setting [7] was determined as 3 % UTC.
Turning to “1074442 (kG*kA*k[5mC]*d[5mC]*dA*dG*dT*dA*dA*dA*dT*d[5mC]*dA*kT*kG*kT; antisense) [Compound 1074442]”, under setting [12], the “YAP1 (% UTC)” value is reported as 21 % UTC.
As for “716501 (kG*k[5mC]*kA*d[5mC]*dT*dG*dA*dA*dA*dG*dT*dA*d[5mC]*kT*kT*kA; antisense) [Compound 716501]”, under setting [11], the “YAP1 (% UTC)” value stood at 32 % UTC.
As to “1074150 (antisense kG*kG*k[5mC]*d[5mC]*dG*dA*dG*dG*dT*dG*dG*dA*dG*kA*kA*kG) [Compound 1074150]”, the “YAP1 (% UTC)” value under setting [2] is given as 85 % UTC.
For the substance “1074899 (antisense kT*kA*kA*d[5mC]*dT*dT*dT*dT*dG*dG*dG*d[5mC]*dA*kA*kA*kG) [compound 1074899]”, under setting [1], the “YAP1 (% UTC)” value is listed as 52 % UTC.
In the case of “1074152 (antisense k[5mC]*kG*kG*dG*d[5mC]*d[5mC]*dG*dA*dG*dG*dT*dG*dG*kA*kG*kA) [Compound 1074152]”, the “YAP1 (% UTC)” value under setting [9] was determined as 77 % UTC.
